Test results reported in article PMC3814572, “Identification of Novel Compounds Inhibiting Chikungunya Virus-Induced Cell Death by High Throughput Screening of a Kinase Inhibitor Library” (PLoS Neglected Tropical Diseases, 2013).
Like-named read-outs stand apart in the source and are kept apart here.

Legend:
CHIKV-118-GFP [1] = experiment: Image-based high-content assay of CHIKV-118-GFP infectivity in HuH-7; assay type: cell-based, Chikungunya virus; details: for percentage of infected cells / inhibition at 20 µM / inhibition at 50 µM: 24 hrs; for observed apoptotic blebs associated with CHIKV infection: 24 hpi; for inhibition at 20 µM / inhibition at 50 µM: Chikungunya virus, read-out: inhibition of CHIKV-118-GFP infection
CHIKV-118-GFP [2] = experiment: Virus yield reduction assay (plaque assay of culture medium); details: 24 hrs, culture supernatant of HuH-7
CHIKV-118-GFP [3] = experiment: Microneutralization assay (protection against CHIKV-induced CPE); details: 50 pfu CHIKV-118-GFP, 72 hrs, HuH-7
[4] = Resazurin reduction assay, toxicity in MOCK-infected (non-infected) HuH-7; details: human
CHIKV-118-GFP [5] = experiment: Resazurin reduction assay, dose-response of inhibition of CHIKV-associated cell death in HuH-7; details: for EC50: Chikungunya virus, Huh-7, 72 h; for SI (CC50/EC50): minimum SI based on the highest concentration of compound tested
HuH-7 cells [6] = experiment: Resazurin reduction assay, toxicity in MOCK-infected (non-infected) HuH-7; details: HuH-7
DENV2 (BR DEN2 01-01) = details: 10 µM, Huh-7.5, 72 hrs; cited from earlier work
Huh-7.5 cells = details: 10 µM, Huh-7.5, 72 hrs; cited from earlier work
HuH-7 cells [7] = experiment: Cell number by DAPI-stained nuclei imaging in HuH-7; details: 50 µM
HuH-7 cells [8] = details: human
in vitro = details: human
[9] = read-out: EC50 (concentration showing 50% inhibition relative to the maximum inhibition achieved)

SMILES | percentage of infected cells (CHIKV-118-GFP [1]; 20 µM) [%] | observed apoptotic blebs associated with CHIKV infection (CHIKV-118-GFP [1]) | CC50 at 72 h [4] [µM] | EC50 (CHIKV-118-GFP [5]; [9]) [µM] | SI (CC50/EC50) (CHIKV-118-GFP [5]) | EC50 (CHIKV-118-GFP [5]) [µM] | also measured
COc1cccc(Nc2cc3c(cn2)cc(-c2cccc(C(F)(F)F)c2)n3C)c1 [CND0545] | 71.7 | significantly lower | > 50 | 5.6 | >8.9 |  | inhibition at 20 µM (CHIKV-118-GFP [1]; 20 µM): 28.3%; log titer reduction vs DMSO vehicle control (CHIKV-118-GFP [2]; 20 µM): 2.01 log; lowest concentration that inhibited CHIKV-induced CPE (clearing of cell monolayer) (CHIKV-118-GFP [3]): 25 µM
COc1ccc(-c2coc3c(C(=O)Nc4cccnc4)cccc23)c(C)c1 [CND0366] | 94.4 |  | > 50 | 7.1 | >7.0 |  | 
CCN(CC)CCCC(C)Nc1ccnc2cc(Cl)ccc12 (stereo not drawn) [CQ, Chloroquine, reference compound] |  | still prominent | 90 |  |  | 29 | percentage of infected cells (CHIKV-118-GFP [1]; 50 µM): 24.4%; inhibition at 50 µM (CHIKV-118-GFP [1]; 50 µM): 75.6%; log titer reduction vs DMSO vehicle control (CHIKV-118-GFP [2]; 50 µM): 1.88 log
COc1ccc(-c2coc3c(C(=O)NC(C)C)cccc23)c(C)c1 [CND0415] | 96.4 |  | > 50 | 6.2 | >8.1 |  | 
COc1ccc(-c2ccc(C(=O)Nc3ccc(C(C)C)cc3)c3occc23)c(C)c1 [CND0364] | 80.3 | significantly lower | > 50 | 6.2 | >8.1 |  | inhibition at 20 µM (CHIKV-118-GFP [1]; 20 µM): 19.7%; log titer reduction vs DMSO vehicle control (CHIKV-118-GFP [2]; 20 µM): 1.69 log; lowest concentration that inhibited CHIKV-induced CPE (clearing of cell monolayer) (CHIKV-118-GFP [3]): 12.5 µM
COc1ccc(-c2ccc(C(=O)NC(C)C)c3occc23)c(C)c1 [CND0335] | 90.9 |  | > 50 | 3.3 | >15 |  | 
COc1c(C)c2c(c(O)c1C/C=C(\C)CCC(=O)O)C(=O)OC2 [MPA, Mycophenolic acid, reference compound] |  | significantly lower | > 100 |  |  | 1.6 | percentage of infected cells (CHIKV-118-GFP [1]; 50 µM): 7.34%; inhibition at 50 µM (CHIKV-118-GFP [1]; 50 µM): > 92%; cytotoxicity at the highest concentration tested (HuH-7 cells [6]; 100 µM): no observable cytotoxicity
CC(C)c1ccc(NC(=O)c2csc(C(O)C(C)C)n2)cc1 (stereo not drawn) [CND3514] | 92.2 |  | > 50 | 2.2 | >22.7 |  | inhibition against DENV2 (DENV2 (BR DEN2 01-01)): 67.87%; toxicity in DENV2 screening (cell number) (Huh-7.5 cells): 39.37%
CN(C)CCCN1c2ccccc2Sc2ccc(Cl)cc21 [CPZ, Chlorpromazine] |  |  |  |  |  |  | reduction of cell number (HuH-7 cells [7]; 24 hrs): 86%; reduction of cell number (HuH-7 cells [7]; 48 hrs): > 99.9%; reduction of cell number (HuH-7 cells [7]; 72 hrs): > 99.9%; reduction of cell number (HuH-7 cells [7]; 96 hrs): > 99.9%; fluorescence readout after resazurin treatment (HuH-7 cells [6]; 50 µM, 72 hpi): 240,842±14,730 RFU
CO/C1=C\C(C)=C\[C@@H](C)[C@@H](O)[C@@H](C)C/C(C)=C/C=C/[C@H](OC)[C@@H]([C@@H](C)[C@@H](O)[C@H](C)[C@@]2(O)C[C@@H](O)[C@H](C)[C@@H](C(C)C)O2)OC1=O [BAF, Bafilomycin A1] |  |  |  |  |  | 0.056 | CC50 (HuH-7 cells [8]): 237 nM; CC50 (in vitro): 90 nM
